Results from paper PMC8480782, “Efficient Dimerization Disruption of Leishmania infantum Trypanothione Reductase by Triazole-phenyl-thiazoles” (Journal of Medicinal Chemistry, 2021).

Experiments:
[1] = target: T1, LiTryR dimer (Leishmania infantum, UniProt A4HSF7); assay: biochemical; settings: for IC50: 400 nM LiTryR, 16 h at 37 °C, read-out: IC50^dim, LiTryR monomer displacement (dimer quantitation ELISA); for inhibition at 20 µM: read-out: Percentage of inhibition (dimerization) observed at 20 μM, 20 μM compound
T1 construct: made in house; host or cells: E. coli BL21 (DE3) Rossetta (co-transformed with both plasmids)
T1 sequence (A4HSF7 1-491): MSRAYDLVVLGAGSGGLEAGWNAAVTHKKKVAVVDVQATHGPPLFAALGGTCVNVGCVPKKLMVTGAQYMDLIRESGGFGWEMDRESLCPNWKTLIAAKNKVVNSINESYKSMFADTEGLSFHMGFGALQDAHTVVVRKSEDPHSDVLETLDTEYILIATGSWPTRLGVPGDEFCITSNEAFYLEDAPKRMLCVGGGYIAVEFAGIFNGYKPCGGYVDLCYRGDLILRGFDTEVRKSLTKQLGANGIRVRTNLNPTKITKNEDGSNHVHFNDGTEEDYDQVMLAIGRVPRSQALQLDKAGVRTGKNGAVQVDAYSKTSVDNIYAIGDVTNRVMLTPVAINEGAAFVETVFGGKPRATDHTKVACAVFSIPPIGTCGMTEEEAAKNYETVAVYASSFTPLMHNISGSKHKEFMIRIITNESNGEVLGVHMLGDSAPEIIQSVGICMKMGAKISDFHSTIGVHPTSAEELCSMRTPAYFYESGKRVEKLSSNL
Procedure: The stability of the LiTryR dimeric form in the presence of 1,2,3-triazole-phenyl-thiazole-based compounds was evaluated using the novel enzyme-linked immunosorbent assay (ELISA) developed in our laboratory.[25] […] Next, the different solutions were centrifuged at 18 000g for 15 min at room temperature. The supernatants (200 μL/well) were added to the α-FLAG-coated plates (Sigma-Aldrich, St. Louis, MO) and incubated for 30 min at 37 °C with agitation in a humid atmosphere. The plates were washed five times with TTBS buffer (2 mM Tris, pH 7.6, 138 mM NaCl, and 0.1% Tween-20) and incubated with diluted monoclonal α-HIS horseradish peroxidase (HRP)-conjugated antibody (200 μL, 1:50 000, Abcam, Cambridge, U.K.) in fatty acid- and essentially globulin-free bovine serum albumin (BSA) (5%) prepared in TTBS buffer for 1 h at room temperature. The plates were washed five times, and o-phenylenediamine dihydrochloride (OPD) substrate prepared according to the manufacturer’s instructions was added. The enzymatic reaction was stopped after 5 min with H2SO4 (100 μL, […]), and the absorbances were measured at 490 nm in an EnSpire Multimode Plate Reader (PerkinElmer, Waltham, MA). All of the assays were conducted in triplicate in at least three independent experiments. Data were analyzed using a nonlinear regression model with GraFit 6 software (Erithacus, Horley, Surrey, U.K.).

[2] = target: T2, TcoTryR (Trypanosoma congolense, UniProt P13110); assay: TryR oxidoreductase activity, DTNB-coupled assay (TcoTryR); type: biochemical
T2 construct: HIS; made in house; host or cells: E. coli
T2 sequence (P13110 whole entry): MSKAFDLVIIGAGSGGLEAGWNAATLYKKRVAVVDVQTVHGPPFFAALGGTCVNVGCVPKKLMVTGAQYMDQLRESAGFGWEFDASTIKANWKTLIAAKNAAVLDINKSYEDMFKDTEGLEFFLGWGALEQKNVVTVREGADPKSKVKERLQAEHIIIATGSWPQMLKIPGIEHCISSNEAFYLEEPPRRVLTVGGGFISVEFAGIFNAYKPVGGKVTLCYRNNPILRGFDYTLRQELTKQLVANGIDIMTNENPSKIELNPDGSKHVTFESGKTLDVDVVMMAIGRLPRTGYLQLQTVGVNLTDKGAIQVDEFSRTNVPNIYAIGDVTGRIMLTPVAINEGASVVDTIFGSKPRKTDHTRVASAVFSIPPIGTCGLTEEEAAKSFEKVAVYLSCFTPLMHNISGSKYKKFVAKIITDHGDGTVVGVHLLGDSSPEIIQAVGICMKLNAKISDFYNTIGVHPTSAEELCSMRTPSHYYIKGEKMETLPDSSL
From the text: The DNA coding sequences for Homo sapiens GR, T. brucei TryR, and T. congolense TryR were polymerase chain reaction (PCR)-amplified and cloned in the pRSETA plasmid. The DNA coding for hGR (transcript variant 1; NCBI Reference Sequence: NM_000637.5) was purchased from GeneScript. Genomic DNA from T. congolense parasites was kindly provided by Dr. Stefan Magez (University of Vrije, Brussels). Genomic DNA from the T. brucei S16 cell line was kindly provided by José M. Pérez-Victoria. Instituto de Parasitología y Biomedicina “López—Neyra” CSIC. HIS-tagged recombinant T. brucei and T. congolense TryRs (TbTryR and TcoTryR, respectively) were purified from E. coli as already explained for LiTryR.
TryR oxidoreductase activity was determined spectrophotometrically using a modified version of the DTNB-coupled assay described by Hamilton et al.[52] Briefly, reactions were carried out at 26 °C in 250 μL of N-(2-hydroxyethyl)piperazine-N′-ethanesulfonic acid (HEPES) buffer (pH 7.5, 40 mM) containing ethylenediaminetetraacetic acid (EDTA) (1 mM), NADP^+ (30 μM), DTNB (25 μM), TS2 (1 μM), NADPH (150 μM), glycerol (0.02%), DMSO (1.75%), and recombinant TryR (7 nM). […] Reactions were started by addition of a mixture of NADPH and TS2.
TryR oxidoreductase activity was monitored at 26 °C by an increase in absorbance at 412 nm in an EnSpire Multimode Plate Reader (PerkinElmer, Waltham, MA). […] (TNB) concentration was obtained by multiplying the absorbance values by 100 (50 μM TNB generates 0.5 arbitrary units of absorbance at 412 nm). In this DTNB-coupled assay, one molecule of T(SH)2 reduces one molecule of DTNB, producing two TNB molecules. All of the assays were conducted in at least three independent experiments. Data were analyzed using a nonlinear regression model with GraFit 6 software (Erithacus, Horley, Surrey, U.K.).

| SMILES | IC50 [1] [µM] | IC50 [2] [µM] | fold more potent than 12n, IC50^dim ([1]; versus monomeric 12n) [fold] | inhibition at 20 µM [1] [%] |
| --- | --- | --- | --- | --- |
| NCCCCc1cn(-c2ccc(-c3nc(CCc4ccc5c(c4)CCCN5)cs3)c(OCCN3CCNC3=O)c2)nn1.O=C(O)C(F)(F)F.O=C(O)C(F)(F)F [12q] | > 75 |  |  |  |
| NCCCCc1cn(-c2ccc(-c3nc(-c4ccccc4)cs3)c(OCCN3CCNC3=O)c2)nn1.O=C(O)C(F)(F)F [12n] | 29 ± 1.5 | 9.3 ± 0.8 |  |  |
| NCCCCc1cn(-c2ccc(-c3nc(-c4ccccc4)c(-c4ccccc4)s3)c(OCCN3CCNC3=O)c2)nn1.O=C(O)C(F)(F)F [19a, 1-(2-(5-(4-(4-Ammoniobutyl)-1H-1,2,3-triazol-1-yl)-2-(4,5-diphenylthiazol-2-yl)phenoxy)ethyl)imidazolidin-2-one 2,2,2-Trifluoroacetate] | 7.1 ± 1.7 | 5.6 ± 0.8 |  |  |
| NCCCCc1cn(-c2ccc(-c3nc(-c4cccc(-c5csc(-c6ccc(-n7cc(CCCCN)nn7)cc6OCCN6CCNC6=O)n5)c4)cs3)c(OCCN3CCNC3=O)c2)nn1.O=C(O)C(F)(F)F.O=C(O)C(F)(F)F [compound 22, 1,1′-((((1,3-Phenylenebis(thiazole-4,2-diyl))bis(5-(4-(4-ammoniobutyl)-1H-1,2,3-triazol-1-yl)-2,1-phenylene))bis(oxy))bis(ethane-2,1-diyl))bis(imidazolidin-2-one)bis(2,2,2-trifluoroacetate)] | 8 ± 0.2 | 0.5 ± 0.1 | 4 |  |
| NCCCCc1cn(-c2ccc(-c3nc(CCc4ccc5oc6ccccc6c5c4)cs3)c(OCCN3CCNC3=O)c2)nn1.O=C(O)C(F)(F)F [12s] | 8.8 ± 0.2 |  |  |  |
| NCCNCc1nccn1-c1ccc(-c2nc(CCc3ccc(-c4ccccc4)cc3)cs2)c(OCCN2CCNC2=O)c1 [compound 3, reference compound] |  |  |  | ~30 |
| NCCCc1cn(-c2ccc(-c3nc(CCc4ccc(-c5ccccc5)cc4)cs3)c(OCCN3CCNC3=O)c2)nn1.O=C(O)C(F)(F)F [12i] | 10.8 ± 0.1 |  |  |  |
| NCCNCc1nccn1-c1ccc(-c2nc(CCc3ccc4ccccc4c3)cs2)c(OCCN2CCNC2=O)c1 [compound 2, reference compound] |  |  |  | ~30 |
| NCCCCc1cn(-c2ccc(-c3nc(-c4ccc(Oc5ccccc5)cc4)c(-c4ccccc4)s3)c(OCCN3CCNC3=O)c2)nn1.O=C(O)C(F)(F)F [19c, 1-(2-(5-(4-(4-Ammoniobutyl)-1H-1,2,3-triazol-1-yl)-2-(4-([4-phenyloxyphenyl]-1-yl)-5-phenylthiazol-2-yl)phenoxy)ethyl)imidazolidin-2-one 2,2,2-Trifluoroacetate] | 9 ± 0.5 |  |  |  |
| NCCCCc1cn(-c2ccc(-c3nc(CCc4ccc(-c5ccccc5)cc4)cs3)c(OCCN3CCNC3=O)c2)nn1.O=C(O)C(F)(F)F [12c, 1-(2-(2-(4-(2-([1,1′-Biphenyl]-4-yl)ethyl)thiazol-2-yl)-5-(4-(4-ammoniumbutyl)-1H-1,2,3-triazol-1-yl)phenoxy)ethyl)imidazolidin-2-one 2,2,2-Trifluoroacetate] | 4.8 ± 0.6 | 4.8 ± 1.8 |  | 78 |
| NCCCCc1cn(-c2ccc(-c3nc(CCc4ccc5ccccc5c4)cs3)c(OCCN3CCNC3=O)c2)nn1.O=C(O)C(F)(F)F [12b, 1-(2-(5-(4-(4-Ammoniumbutyl)-1H-1,2,3-triazol-1-yl)-2-(4-(2-(naphthalen-2-yl)ethyl)thiazol-2-yl)phenoxy)ethyl)imidazolidin-2-one 2,2,2-Trifluoroacetate] | 7.1 ± 0.6 | 4.8 ± 1.9 |  | 73 |
| NCCCCc1cn(-c2ccc(-c3nc(CCc4ccc5c(c4)CCO5)cs3)c(OCCN3CCNC3=O)c2)nn1.O=C(O)C(F)(F)F [12r] | 10.7 ± 0.5 | 10.1 ± 1.4 |  |  |
